Results reported in ChEMBL document CHEMBL6178014, “Discovery and Administration Optimization of Novel Selective CDK9 Inhibitor, 1-7a-B1, for Improved Pharmacokinetics and Antitumor Efficacy In Vivo” (J Med Chem, 2025).
Activity calls are given as the source filed them. The calls are words filed in the database; no cut-off is given here.

How the values were obtained:
[1] = target: CDK9/cyclin T1 (Homo sapiens, UniProt P50750); experiment: Inhibition of His-tagged full length human recombinant CDK9/cyclinT1 using KTFCGTPEYLAPEVRREPRILSEEEQEMFRDFDYIADWC as substrate incubated for 60 mins by ADP-Glo kinase assay; assay type: protein-complex assay
[2] = system: HCT-116; experiment: Antiproliferative activity against human HCT-116 cells assessed as inhibition of cell growth incubated for 48 hrs by CCK8 assay; assay type: functional
[3] = system: HT-29; experiment: Antiproliferative activity against human HT-29 cells assessed as inhibition of cell growth incubated for 48 hrs by CCK8 assay; assay type: functional
[4] = target: CDK6/cyclin D3 (Homo sapiens, UniProt Q00534); experiment: Inhibition of CDK6/cycD3 (unknown origin) by ADP-Glo assay; assay type: protein-complex assay
[5] = system: NCI-H226; experiment: Cytotoxicity against human NCI-H226 cells assessed as cell viability incubated for 48 hrs by CCK8 assay; assay type: functional, cell-based
[6] = system: HCT-116; experiment: Antiproliferative activity against human HCT-116 cells assessed as reduction in colony formation incubated for 14 days by crystal violet staining based analysis; assay type: functional, cell-based; conditions: dose 50-400 nM, time 14.0 day
[7] = system: HCT-116; experiment: Induction of apoptosis in human HCT-116 cells assessed as increase in caspase-3 activity at 100 to 200 nM incubated for 48 hrs by GreenNuc substrate based flow cytometry analysis; assay type: functional, cell-based; conditions: dose 100-200 nM
[8] = target: Cellular tumor antigen p53 (Homo sapiens) (UniProt P04637); experiment: Induction of stabilization of wild type p53 in human HCT-116 cells at 100 to 400 nM incubated for 48 hrs by Western blot analysis; assay type: cell-based; conditions: dose 100-400 nM
[9] = target: Cyclin-dependent kinase 9 (Homo sapiens) (UniProt P50750); experiment: Inhibition of CDK9 in human HCT-116 cells assessed as reduction in phosphorylation of RNA polymerase II at Ser2 residue at 100 to 400 nM incubated for 48 hrs by Western blot analysis; assay type: cell-based; conditions: dose 100-400 nM
[10] = system: HCT-116; experiment: Downregulation of Bcl-2 mRNA level in human HCT-116 cells at 200 to 400 nM incubated for 48 hrs by qRT-PCR analysis; assay type: functional, cell-based; conditions: dose 200-400 nM
[11] = system: HCT-116; experiment: Downregulation of Mcl-1 level in human HCT-116 cells at 200 to 400 nM incubated for 48 hrs by Western blot analysis; assay type: functional, cell-based; conditions: dose 200-400 nM
[12] = system: HCT-116; experiment: Induction of apoptosis in human HCT-116 cells assessed as increase in caspase-3 cleavage incubated for 48 hrs by Western blot analysis; assay type: functional, cell-based; conditions: dose 100-400 nM
[13] = system: HCT-116; experiment: Effect on RNA polymerase II expression in human HCT-116 cells at 100 to 400 nM incubated for 48 hrs by Western blot analysis; assay type: functional, cell-based; conditions: dose 100-400 nM
[14] = system: HCT-116; experiment: Induction of cell cycle arrest in human HCT-116 cells assessed as accumulation of cells at S phase incubated for 48 hrs by PI/RNase staining based flow cytometry analysis; assay type: functional
[15] = system: Mitochondrial membrane; experiment: Induction of mitochondrial membrane depolarization in human HCT-116 cells at 100 to 400 nM incubated for 48 hrs by JC-1 staining based flow cytometry analysis; assay type: cell membranes; conditions: dose 100-400 nM
[16] = Metabolic stability in human liver microsome assessed as intrinsic clearance at 100 uM pre-incubated with compound for 60 mins followed by NADPH addition and measured up to 60 mins by LC-MS/MS analysis; assay type: ADME; conditions: liver microsomes, read-out: CLH
[17] = Stability in human plasma assessed as half life at 100 uM measured up to 120 mins by LC-MS/MS analysis; assay type: ADME, cell-free
[18] = target: CYP1A2 (Homo sapiens, UniProt P05177); experiment: Inhibition of CYP1A2 in human liver microsome at 10 uM pre-incubated with compound for 10 mins in presence of NADPH-regenerating system by LC-MS/MS analysis relative to control; assay type: ADME; conditions: liver microsomes
[19] = target: CYP2C19 (Homo sapiens, UniProt P33261); experiment: Inhibition of CYP2C19 in human liver microsome at 10 uM pre-incubated with compound for 10 mins in presence of NADPH-regenerating system by LC-MS/MS analysis relative to control; assay type: ADME; conditions: liver microsomes
[20] = target: CYP2D6 (Homo sapiens, UniProt P10635); experiment: Inhibition of CYP2D6 in human liver microsome at 10 uM pre-incubated with compound for 10 mins in presence of NADPH-regenerating system by LC-MS/MS analysis relative to control; assay type: ADME; conditions: liver microsomes
[21] = target: CYP3A4 (Homo sapiens, UniProt P08684); experiment: Inhibition of CYP3A4 in human liver microsome at 10 uM pre-incubated with compound for 10 mins in presence of NADPH-regenerating system by LC-MS/MS analysis relative to control; assay type: ADME; conditions: liver microsomes
[22] = Clearance in Sprague-Dawley rat at 2 mg/kg, iv measured after 24 hrs by LC-MS/MS analysis; assay type: ADME, organism-based; conditions: in vivo
[23] = Volume of distribution in Sprague-Dawley rat at 2 mg/kg, iv measured after 24 hrs by LC-MS/MS analysis; assay type: ADME, organism-based; conditions: in vivo
[24] = AUC (0 to t) in Sprague-Dawley rat at 30 mg/kg, po measured after 24 hrs by LC-MS/MS analysis; assay type: ADME, organism-based; conditions: in vivo
[25] = AUC (0 to infinity) in Sprague-Dawley rat at 30 mg/kg, po measured after 24 hrs by LC-MS/MS analysis; assay type: ADME, organism-based; conditions: in vivo
[26] = Volume of distribution in Sprague-Dawley rat at 30 mg/kg, po measured after 24 hrs by LC-MS/MS analysis; assay type: ADME, organism-based; conditions: in vivo
[27] = AUC (0 to infinity) in Sprague-Dawley rat at 30 mg/kg, po as submicron emulsion measured after 24 hrs by LC-MS/MS analysis; assay type: ADME, organism-based; conditions: in vivo
[28] = Toxicity in female BALB/c nu-nu mouse xenografted with human HCT-116 cells assessed as body weight loss at 20 mg/kg, po as submicron emulsion administered once daily for 3 weeks; assay type: organism-based; conditions: in vivo, 504 h
[29] = Toxicity in female BALB/c nu-nu mouse xenografted with human HCT-116 cells assessed as histopathological changes in heart at 40 mg/kg, po administered once daily for 3 weeks by H and E staining based analysis; assay type: organism-based; conditions: in vivo, 504 h
[30] = Toxicity in female BALB/c nu-nu mouse xenografted with human HCT-116 cells assessed as histopathological changes in liver at 40 mg/kg, po administered once daily for 3 weeks by H and E staining based analysis; assay type: organism-based; conditions: in vivo, 504 h
[31] = Toxicity in female BALB/c nu-nu mouse xenografted with human HCT-116 cells assessed as histopathological changes in liver at 20 mg/kg, po as submicron emulsion administered once daily for 3 weeks by H and E staining based analysis; assay type: organism-based; conditions: in vivo, 504 h
[32] = Toxicity in female BALB/c nu-nu mouse xenografted with human HCT-116 cells assessed as histopathological changes in kidney at 20 mg/kg, po as submicron emulsion administered once daily for 3 weeks by H and E staining based analysis; assay type: organism-based; conditions: in vivo, 504 h
[33] = system: HCT-116; experiment: Antitumor activity against human HCT-116 cells xenografted in female BALB/c nu-nu mouse assessed as downregulation of c-Myc mRNA expression at 40 mg/kg, po incubated for 48 hrs by qRT-PCR analysis; assay type: functional, organism-based
[34] = system: HCT-116; experiment: Antitumor activity against human HCT-116 cells xenografted in female BALB/c nu-nu mouse assessed as downregulation of Bcl-2 mRNA expression at 40 mg/kg, po incubated for 48 hrs by qRT-PCR analysis; assay type: functional, organism-based

Sequence of CDK9/cyclin T1 (O60563 whole entry): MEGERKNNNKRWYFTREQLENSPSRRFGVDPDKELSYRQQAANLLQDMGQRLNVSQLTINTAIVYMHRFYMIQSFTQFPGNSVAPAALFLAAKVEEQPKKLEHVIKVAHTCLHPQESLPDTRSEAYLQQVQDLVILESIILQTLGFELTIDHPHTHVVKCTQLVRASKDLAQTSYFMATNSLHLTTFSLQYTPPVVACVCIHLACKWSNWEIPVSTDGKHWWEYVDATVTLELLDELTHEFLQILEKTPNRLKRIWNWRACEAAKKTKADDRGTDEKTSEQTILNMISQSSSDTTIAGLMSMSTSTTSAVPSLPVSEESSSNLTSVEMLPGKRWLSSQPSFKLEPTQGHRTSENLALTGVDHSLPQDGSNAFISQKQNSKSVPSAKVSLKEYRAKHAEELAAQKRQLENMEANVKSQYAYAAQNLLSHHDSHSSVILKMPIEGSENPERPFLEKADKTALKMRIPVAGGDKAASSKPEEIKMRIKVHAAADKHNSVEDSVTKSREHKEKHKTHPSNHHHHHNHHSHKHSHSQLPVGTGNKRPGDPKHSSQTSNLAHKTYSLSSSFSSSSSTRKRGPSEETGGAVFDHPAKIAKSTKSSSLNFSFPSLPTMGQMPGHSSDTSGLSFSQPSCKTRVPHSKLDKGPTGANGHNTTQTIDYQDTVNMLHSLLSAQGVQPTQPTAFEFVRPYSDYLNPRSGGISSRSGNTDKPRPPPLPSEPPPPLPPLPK
Sequence of CDK9/cyclin T1 (P50750 whole entry): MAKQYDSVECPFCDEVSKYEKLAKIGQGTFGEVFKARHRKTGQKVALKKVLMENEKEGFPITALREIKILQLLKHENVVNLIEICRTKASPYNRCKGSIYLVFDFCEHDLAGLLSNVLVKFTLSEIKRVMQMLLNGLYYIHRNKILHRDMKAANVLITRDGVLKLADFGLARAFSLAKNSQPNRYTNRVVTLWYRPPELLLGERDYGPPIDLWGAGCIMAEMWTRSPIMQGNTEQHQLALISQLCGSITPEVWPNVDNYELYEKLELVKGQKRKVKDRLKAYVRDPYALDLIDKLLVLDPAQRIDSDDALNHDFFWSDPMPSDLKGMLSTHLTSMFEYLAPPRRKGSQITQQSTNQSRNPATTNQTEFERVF
Sequence of CYP1A2 (P05177 whole entry): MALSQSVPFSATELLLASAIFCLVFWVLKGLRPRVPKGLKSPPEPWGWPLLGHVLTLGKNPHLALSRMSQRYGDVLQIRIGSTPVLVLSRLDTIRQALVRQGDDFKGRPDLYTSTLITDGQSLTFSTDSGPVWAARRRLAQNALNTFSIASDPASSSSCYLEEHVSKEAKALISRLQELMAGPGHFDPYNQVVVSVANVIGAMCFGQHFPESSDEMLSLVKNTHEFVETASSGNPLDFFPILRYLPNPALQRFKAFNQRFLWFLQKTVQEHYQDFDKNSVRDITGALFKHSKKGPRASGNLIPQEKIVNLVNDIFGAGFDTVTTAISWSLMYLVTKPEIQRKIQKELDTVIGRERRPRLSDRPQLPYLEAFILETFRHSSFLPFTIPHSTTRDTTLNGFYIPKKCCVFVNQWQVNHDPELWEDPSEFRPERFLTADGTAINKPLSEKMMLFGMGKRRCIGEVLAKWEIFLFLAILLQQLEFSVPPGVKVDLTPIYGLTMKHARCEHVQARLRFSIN
Sequence of CYP3A4 (P08684 whole entry): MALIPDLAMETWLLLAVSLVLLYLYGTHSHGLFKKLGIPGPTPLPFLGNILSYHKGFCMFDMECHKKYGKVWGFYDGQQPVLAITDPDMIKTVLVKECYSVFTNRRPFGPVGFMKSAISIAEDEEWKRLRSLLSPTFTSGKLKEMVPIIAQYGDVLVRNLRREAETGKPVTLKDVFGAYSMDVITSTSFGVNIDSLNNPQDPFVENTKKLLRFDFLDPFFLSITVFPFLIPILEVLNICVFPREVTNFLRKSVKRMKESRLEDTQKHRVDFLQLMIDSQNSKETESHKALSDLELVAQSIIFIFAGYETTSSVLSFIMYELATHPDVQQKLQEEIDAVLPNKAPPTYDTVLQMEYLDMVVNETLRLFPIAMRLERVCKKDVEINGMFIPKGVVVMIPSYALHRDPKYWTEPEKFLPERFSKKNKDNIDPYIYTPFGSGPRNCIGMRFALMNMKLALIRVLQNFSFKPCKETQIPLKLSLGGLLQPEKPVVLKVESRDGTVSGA
Sequence of CDK6/cyclin D3 (P30281 whole entry): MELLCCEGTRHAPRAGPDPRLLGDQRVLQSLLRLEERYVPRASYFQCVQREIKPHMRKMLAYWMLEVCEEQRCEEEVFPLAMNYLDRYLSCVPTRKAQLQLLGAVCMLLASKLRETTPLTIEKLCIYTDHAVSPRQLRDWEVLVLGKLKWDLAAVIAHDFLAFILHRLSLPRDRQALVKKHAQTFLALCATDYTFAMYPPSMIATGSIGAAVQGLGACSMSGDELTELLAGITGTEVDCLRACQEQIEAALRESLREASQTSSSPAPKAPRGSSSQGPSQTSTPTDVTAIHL
Sequence of CDK6/cyclin D3 (Q00534 whole entry): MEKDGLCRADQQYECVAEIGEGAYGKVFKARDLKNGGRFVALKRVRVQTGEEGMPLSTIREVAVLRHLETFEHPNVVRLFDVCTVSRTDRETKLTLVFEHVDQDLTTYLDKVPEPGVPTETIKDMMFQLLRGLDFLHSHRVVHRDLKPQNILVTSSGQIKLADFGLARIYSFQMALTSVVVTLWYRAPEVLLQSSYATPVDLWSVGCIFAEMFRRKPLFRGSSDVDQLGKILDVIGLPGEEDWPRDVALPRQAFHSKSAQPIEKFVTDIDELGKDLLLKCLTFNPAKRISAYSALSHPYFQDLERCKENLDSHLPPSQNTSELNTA
Sequence of CYP2D6 (P10635 whole entry): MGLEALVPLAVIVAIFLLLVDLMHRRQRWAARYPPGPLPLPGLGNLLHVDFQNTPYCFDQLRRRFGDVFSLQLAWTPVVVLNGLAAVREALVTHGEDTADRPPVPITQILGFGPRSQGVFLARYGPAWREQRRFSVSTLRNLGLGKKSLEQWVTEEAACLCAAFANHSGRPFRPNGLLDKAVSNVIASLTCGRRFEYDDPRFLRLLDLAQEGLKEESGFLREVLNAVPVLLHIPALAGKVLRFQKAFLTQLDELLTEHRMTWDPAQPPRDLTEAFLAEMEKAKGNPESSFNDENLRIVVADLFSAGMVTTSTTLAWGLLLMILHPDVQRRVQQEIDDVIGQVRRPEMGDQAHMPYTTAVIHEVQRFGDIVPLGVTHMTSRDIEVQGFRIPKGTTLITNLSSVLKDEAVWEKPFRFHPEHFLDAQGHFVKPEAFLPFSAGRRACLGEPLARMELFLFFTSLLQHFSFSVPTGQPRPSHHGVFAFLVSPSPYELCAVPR
Sequence of Cellular tumor antigen p53 (Homo sapiens) (P04637 whole entry, looked up): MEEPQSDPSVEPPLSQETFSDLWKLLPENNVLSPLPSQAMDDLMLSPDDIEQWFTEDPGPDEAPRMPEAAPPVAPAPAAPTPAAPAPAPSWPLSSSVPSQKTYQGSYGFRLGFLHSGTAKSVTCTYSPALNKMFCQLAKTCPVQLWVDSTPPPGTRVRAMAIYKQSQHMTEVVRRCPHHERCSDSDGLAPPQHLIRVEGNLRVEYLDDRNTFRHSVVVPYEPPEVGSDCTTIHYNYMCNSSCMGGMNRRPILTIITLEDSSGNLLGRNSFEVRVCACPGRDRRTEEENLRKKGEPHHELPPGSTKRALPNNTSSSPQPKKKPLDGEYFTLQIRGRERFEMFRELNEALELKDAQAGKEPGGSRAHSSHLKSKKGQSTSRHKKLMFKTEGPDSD
Sequence of Cyclin-dependent kinase 9 (Homo sapiens) (P50750 whole entry): as the sequence (P50750 whole entry) above
Sequence of CYP2C19 (P33261 whole entry): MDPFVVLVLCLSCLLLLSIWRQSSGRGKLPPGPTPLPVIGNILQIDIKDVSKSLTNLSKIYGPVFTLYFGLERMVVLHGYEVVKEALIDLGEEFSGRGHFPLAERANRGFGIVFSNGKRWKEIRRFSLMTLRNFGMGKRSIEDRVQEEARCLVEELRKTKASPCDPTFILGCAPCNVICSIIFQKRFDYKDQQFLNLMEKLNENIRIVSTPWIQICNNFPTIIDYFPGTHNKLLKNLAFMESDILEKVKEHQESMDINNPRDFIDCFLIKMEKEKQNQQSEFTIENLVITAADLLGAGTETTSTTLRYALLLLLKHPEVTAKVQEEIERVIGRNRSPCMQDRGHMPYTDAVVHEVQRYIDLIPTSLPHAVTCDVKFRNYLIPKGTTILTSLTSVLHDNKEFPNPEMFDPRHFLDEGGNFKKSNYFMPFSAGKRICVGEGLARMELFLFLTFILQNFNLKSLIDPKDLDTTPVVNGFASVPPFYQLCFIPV

SMILES: CC(C)Oc1cc(F)ccc1-c1ccnc(NC(=O)Nc2cccc(C(=O)N3CCN(C)CC3)c2)c1
- IC50 [1]: 6.51 nM
- GI50 [2]: 150 nM
- GI50 [3]: 190 nM
- IC50 [4]: 7940 nM
- Activity [5]: Active
- Activity [6]: Dose-dependent-effect
- Activity [7]: Active
- Activity [8]: Active
- Activity [9]: Active
- Activity [10]: Active
- Activity [11]: Active
- Activity [12]: Dose-dependent-effect
- Activity [13]: inactive
- Activity [14]: Active
- Activity [15]: Active
- microsomal CLint at 100 µM [16]: 352 µL/min/mg
- half-life at 100 µM [17]: > 4.82 h
- inhibition at 10 µM [18]: 12.5%
- inhibition at 10 µM [19]: 69.6%
- inhibition at 10 µM [20]: 42.6%
- inhibition at 10 µM [21]: 5.2%
- clearance [22]: 81.8 mL/min/kg
- Vd [23]: 1.65 L/kg
- AUC(0-t) at 24 h [24]: 897 ng·h/mL
- AUC [25]: 900 ng·h/mL
- Vd [26]: 5.54 L/kg
- AUC [27]: 1611 ng·h/mL
- Activity [28]: Non-toxic
- Activity [29]: Non-toxic
- Activity [30]: Non-toxic
- Activity [31]: Non-toxic
- Activity [32]: Non-toxic
- Activity [33]: Active
- Activity [34]: Active
